The values that follow come from patent US20050038112A1, “Simplified sarcondictyn derivatives as anti-tumor agents” (priority 2001, published 2005).

Test [1] deals with A2780 cells. As to the kind of experiment: Cytotoxicity (SRB colorimetric assay) on A2780 cells. The settings on record: 72 h incubation, concentration inhibiting cell proliferation by 50%. Format: cell-based. The protocol: (§1) A2780 cells (2000/well) were seeded in multiwell plates (96 wells) in the presence of 200 μl of the complete medium RPMI 1640+10% FCS. After 24 h, the cells were treated with the compounds: the compounds' solution (200×) was prepared in DMSO 100% and 1 μl/well was added. 5 scalar concentrations for each compound were tested in four replicates. The cells were incubated at 37° C., 5% CO2 for 72 h.
(§2) Colorimetric assay (SRB: sulforhodamine B): cell cultures were fixed with trichloroacetic acid, stained with 0.4% SRB dissolved in 1% acetic acid. Unbound dye was removed by four washes with 1% acetic acid and protein-bound dye was extracted with 10 mM Tris base for determination of optical density in a 96-well microtiter plate reader. IC50 and IC90 (concentration inhibiting cell proliferation by 50 or 90%) were determined by data analysis in the Microsoft Excel 97 program.
For orientation: The SRB assay estimates cell density from bound dye.

Test [2] has as its system Human colon carcinoma HCT116 cells. The test is described as follows: Cytotoxicity on HCT116 tumor cell line. Format: cell-based.
Test [3] deals with T1, Pig brain tubulin (Sus scrofa, UniProt P02554).
T1 construct: Pig brain tubulin was prepared by two cycles of assembly and disassembly; from tissue; host or cells: pig brain
The test is described as follows: Microtubule assembly and disassembly assay (tubulin polymerizing activity). Format: biochemical. The settings on record: 0.5 mg/ml tubulin, 37° C., turbidity at 340 nm; for EC50: effective dose that induces 50% tubulin polymerisation, read-out: ED50 (the source's name); for ED90: effective dose that induces 90% tubulin polymerisation. As to the method:
Pig brain tubulin was prepared by two cycles of assembly and disassembly and it was stored in liquid nitrogen in Microtubule Assembly Buffer (MAB: 0.1 M MES, 2.5 mM EGTA, 0.5 mM MgSO4, 0.1 mM EDTA, 0.1 mM DTT pH 6.4). Assembly was monitored by the method of Gaskin et al. (Gaskin F, Cantor C R, Shelanski M L, 1974,: Turbidimetric studies of the in vitro assembly and disassembly of porcine neurotubules. J. Mol. Biol. 89: 737-758). The cuvette (1 cm path) containing 0.5 mg/ml tubulin and 1 mM GTP was shifted to 37° C. and continuous turbidity measurements were made at 340 nm on a spectrophotometer equipped with an automatic recorder and a thermostatically regulated sample chamber. After 30 min CaCl2 (5 mM) was added and disassembly was monitored for 10 mm as decreased turbidity. Scalar doses of test compounds were monitored at regular intervals of 15 min.
(ED50 and ED90) was calculated on this curve.

The test system of test [4] is Human colon carcinoma HT29 cells. As to the kind of experiment: Cytotoxicity on HT29 tumor cell line. Format: cell-based. The protocol: as §1, §2
Human colon carcinoma HT29 cells were also used to study the cytotoxicity of the compounds of the present invention.

Where two headings read alike, the source gives them in different places.

A word on the IC50: it is the concentration that inhibits the measured activity by half. A lower IC50 goes with higher potency.

T1 sequence (P02554 whole entry): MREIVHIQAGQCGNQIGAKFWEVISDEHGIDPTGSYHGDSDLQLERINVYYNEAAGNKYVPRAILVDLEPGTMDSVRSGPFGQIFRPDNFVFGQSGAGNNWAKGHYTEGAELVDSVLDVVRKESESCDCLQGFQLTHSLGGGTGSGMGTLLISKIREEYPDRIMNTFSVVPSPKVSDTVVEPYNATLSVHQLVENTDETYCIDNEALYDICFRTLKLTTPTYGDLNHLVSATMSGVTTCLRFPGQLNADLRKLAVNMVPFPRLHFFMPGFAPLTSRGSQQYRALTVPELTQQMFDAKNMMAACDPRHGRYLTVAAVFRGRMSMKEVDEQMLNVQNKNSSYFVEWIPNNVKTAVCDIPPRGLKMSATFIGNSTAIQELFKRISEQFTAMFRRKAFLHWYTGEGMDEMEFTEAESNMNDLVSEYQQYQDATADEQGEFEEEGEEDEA
T1 sequence (P02550 whole entry partner): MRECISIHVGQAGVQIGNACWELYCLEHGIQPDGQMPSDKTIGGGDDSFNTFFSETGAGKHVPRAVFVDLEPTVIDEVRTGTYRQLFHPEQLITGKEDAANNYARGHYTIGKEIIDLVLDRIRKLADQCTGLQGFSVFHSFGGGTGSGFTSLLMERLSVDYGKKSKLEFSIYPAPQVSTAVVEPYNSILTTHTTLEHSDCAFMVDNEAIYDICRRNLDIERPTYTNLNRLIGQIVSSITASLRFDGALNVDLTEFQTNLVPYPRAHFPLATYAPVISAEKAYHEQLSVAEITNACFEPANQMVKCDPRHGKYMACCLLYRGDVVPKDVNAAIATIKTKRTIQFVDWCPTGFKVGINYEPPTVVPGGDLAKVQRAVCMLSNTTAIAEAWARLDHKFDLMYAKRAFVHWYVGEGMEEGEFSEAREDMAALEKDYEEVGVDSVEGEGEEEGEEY

`CC(=O)O[C@@H]1C/C=C\C[C@@H](OC(=O)/C=C/c2cn(C)cn2)C[C@H]2C(C)=CC[C@H](C(C)C)[C@H]2C1` [Example 12, 3-(1-Methyl-1H-imidazol-4-yl)-acrylic acid 11-acetoxy-1-isopropyl-4-methyl-1,2,4a,5,6,7,10,11,12,12a-decahydro-benzocyclodecen-6-yl ester]: the IC50 in test [1] (Homo sapiens) was 4 µM. Further, in test [2] (Homo sapiens, HCT-116), the IC50 came to 12 µM. In test [3], the EC50 came out at 2000 nM and the “ED90” value is 10.0 µM.

For the compound `CC1=CC[C@H](C(C)C)[C@H]2CC(=O)C/C=C\C[C@@H](OC(=O)/C=C/c3cn(C)cn3)C[C@@H]12` [Example 16, (E)-3-(1-Methyl-1H-imidazol-4-yl)-acrylic acid [(1R,4aR,6R,12aR)-1-isopropyl-4-methyl-11-oxo-1,2,4a,5,6,7,10,11,12,12a-decahydro-benzocyclodecen-6-enyl]ester], the IC50 is 40 µM in test [1] (Homo sapiens); 30 µM in test [4] (Homo sapiens, HT-29); 35 to 60 µM in test [2] (Homo sapiens, HCT-116). Moreover, the EC50 in test [3] turned out to be 200 nM. The “ED90” value in test [3] is 1.2 µM.

Turning to `C=C1C/C=C\C[C@@H](OC(=O)/C=C/c2cn(C)cn2)C[C@H]2C(C)=CC[C@H](C(C)C)[C@H]2C1` [Example 19], the IC50 was determined as 4 µM in test [1] (Homo sapiens); 6 µM in test [4] (Homo sapiens, HT-29); 5 µM in test [2] (Homo sapiens, HCT-116). In test [3], the EC50 was 5000 nM. In test [3], the “ED90” value came to 16.0 µM.

`CO[C@H]1C=CC[C@@H](OC(=O)/C=C/c2cn(C)cn2)C[C@H]2C(C)=CC[C@H](C(C)C)[C@H]2C[C@@H]1OC(=O)C(C)(C)C` [Example 27, (E)-3-(1-Methyl-1H-imidazol-4-yl)-acrylic acid [(1R,4aR,6R,10S,11S,12aR)-11-(2,2-dimethyl-propionyloxy)-1-isopropyl-10-methoxy-4-methyl-1,2,4a,5,6,7,10,11,12,12a-decahydro-benzocyclodecen-6-yl}ester]: the IC50 was under 5 µM in test [1] (Homo sapiens); 7 µM in test [4] (Homo sapiens, HT-29); 10 to 25 µM in test [2] (Homo sapiens, HCT-116). Also, the EC50 in test [3] worked out at 3000 nM.

`CC(=O)O[C@H]1C=CC[C@@H](OC(=O)/C=C/c2cn(C)cn2)C[C@H]2C(C)=CC[C@H](C(C)C)[C@H]2C[C@@H]1OC(=O)C(C)(C)C` [Example 30, (E)-3-(1-Methyl-1H-imidazol-4-yl)-acrylic acid [(1R,4aR,6R,10S,11S,12aR)-10-acetoxy-11-(2,2-dimethyl-propionyloxy)-1-isopropyl-4-methyl-1,2,4a5,6,7,10,11,12,12a-decahydro-benzocyclodecen-6-yl]ester]: in test [3], the EC50 stood at 1000 nM and the “ED90” value turned out to be 1.7 µM.

On to `CC1=CC[C@H](C(C)C)[C@H]2C[C@H](OC(=O)C(C)(C)C)[C@@H](O)C=CC[C@@H](OC(=O)C=Cc3cn(C)cn3)C[C@@H]12` [Example 34, 3-(1-Methyl-1H-imidazol-4-yl)-acrylic acid [(1R,4aR,6R,10S,10S,12aR)-11-(2,2-dimethyl-propionyloxy)-10-hydroxy-1-isopropyl-4-methyl-1,2,4a,5,6,7,10,11,12,12a-decahydro-benzocyclodecen-6-yl}ester], for which the IC50 in test [1] turned out to be 4 µM; in test [4] it was 5 µM; in test [2] it was 4 µM. For the same compound, the EC50 in test [3] stood at 1000 nM. Also, the “ED90” value in test [3] was determined as 1.8 µM.
